Test results: PubChem BioAssay AID831 (PCMD, 2007)
Active and inactive are the calls of the source. No rule for the calls is given here.

Each molecule was assayed against Cathepsin S (Homo sapiens) (UniProt P25774) (assay: IC50 of CTSS protease blockers – biochemical, confirmation, dose response (AID 831)). Settings: purified cathepsin S enzyme activity, fluorescence.
Chain of Cathepsin S (Homo sapiens) (P25774 115-331 limits assumed): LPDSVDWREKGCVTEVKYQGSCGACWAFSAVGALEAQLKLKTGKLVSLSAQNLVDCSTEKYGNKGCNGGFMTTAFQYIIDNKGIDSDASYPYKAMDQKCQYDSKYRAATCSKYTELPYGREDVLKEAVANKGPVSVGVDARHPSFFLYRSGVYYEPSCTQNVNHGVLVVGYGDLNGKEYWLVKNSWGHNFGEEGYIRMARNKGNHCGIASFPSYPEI
`CC1=C(C(=O)Nc2ccc(F)cc2)C(c2cccc(C)c2)n2nc(CCCO)nc2N1` (centres undefined) was tested, and the IC50 was > 50 µM (inactive). With `CCN1CC=C2C(C#N)=C(N)C(C#N)(C#N)C(CCc3ccccc3)C2C1` (centres undefined) the IC50 was 6.55 µM. For `N#CC1=C(N)Oc2c(sc3ccccc23)C1c1ccco1` (centres undefined), the IC50 was > 50 µM (inactive). For `CC(=O)c1c(O)n(C)c(=S)n(-c2ccccc2)c1=O`, the IC50 was > 50 µM (inactive).
